Test: Example 2 multiple rising dose inhaled delta-9-THC study: plasma pharmacokinetics
Protocol: A randomized, double-blind, placebo-controlled, multiple rising dose safety, tolerability, pharmacokinetic and pharmacodynamic study to assess two dose levels of inhaled delta-9-THC was conducted. Dose levels were studied in ascending order. Two consecutive groups (n=9/group) of healthy subjects were studied (Groups I and II). […] There was a lapse of at least 10 days between the groups for interim safety and pharmacokinetic analysis. Two dose levels were studied in ascending order. […] Subjects in each treatment Group (I or II) received single and multiple doses of inhaled delta-9-THC according to the following schedule:
For both dose levels, the first and the last dose of study drug was given under fasted conditions. Subjects were confined to the study site from the evening of Day −2 (Day 1 is the day of administration of the first dose of study drug) until the 120-hour blood sample following the final dose of study drug, resulting in an 18-day confinement period for subjects in Group I and a 25-day confinement period for Group II. Between the completion of Group I and the start of Group II, an interim safety and pharmacokinetic analysis was performed. Based on the results of the interim analyses, the dose level for investigation in Group II was determined.
Two MDI dosage strengths were used corresponding to the same formulations used in Example 1: one delivering 0.3 mg delta-9-THC (or placebo) per actuation and one delivering 1.2 mg delta-9-THC (or placebo) per actuation. The MDI consisted of a pressurized (via propellants) container and a metered-dose valve. The propellants provided the necessary force to expel the drug, and also acted as a solvent and diluent. The canister unit was provided within a mouthpiece (oral adapter), to expel an exact amount of drug, in the proper particle size distribution, upon each actuation. Two basic formulations containing 0.3 and 1.2 mg of delta-9-THC per 50 μL were developed with propellant 1,1,1,2 tetrafluoroethane 134a (HFA 134a), and ethanol as solvent. The formulations were made in accordance with the composition used in Example 1.
Whole blood samples were collected according to the assessment flowchart in EDTA tubes through venepuncture or indwelling catheter. Samples were immediately placed on ice and subsequently centrifuged within 30 minutes at 1,500 g for 10 minutes. Plasma was transferred into a 5 ml screw cap polypropylene tube, stoppered and stored at below minus 20° C. until transfer to the analytical laboratory for analysis. […] The measurement ranges were 0.05-30 ng/ml for delta-9-THC, 0.04-30 ng/ml for 11-OH-THC, and 0.25-10 ng/ml for THC-COOH.
For Example 2: The statistical analysis encompassed an exploratory analysis of the single and multiple dose pharmacokinetics and dose proportionality of two dose levels of inhaled delta-9-THC in healthy subjects. Descriptive statistics included number of subjects, mean, standard deviation, coefficient of variation (%) and geometric mean for all pharmacokinetic parameters.
The exploratory analysis was performed on the logarithms of the dose-normalized pharmacokinetic parameters AUC(0-inf), AUC(0-t), AUC(0-τ) and Cmax. Dose proportionality was tested both at single dose and at multiple dose (steady state) by comparing the dose groups for all pharmacokinetic parameters by an analysis of variance with dose as fixed effect.
Dose proportionality was tested by the contrast between the dose groups. For this contrast on the logarithmic scale, p-values were given. After anti-logarithmic transformation, the resultant ratios of geometric means and 90% confidence intervals were given.
Accumulation was tested by comparing the steady state values for AUC(0-τ) with the single dose values for AUC(0-τ) by a mixed model analysis of variance with dose and day (with levels single dose and steady state) as fixed effects and subject within dose as random effect.

## CCCCCc1cc(O)c2c(c1)OC(C)(C)C1CCC(C(=O)O)=CC21 (stereo not drawn) [THC-COOH, delta-9-tetrahydrocannbinol-carboxylic acid]
1.2 mg delta-9-THC three times daily
  achievement of steady state: lack of steady state
1.2 mg m.d. (three times daily), Day 12, Group I
  Cmax, Geometric Mean (Range): 7.97 (6.03-10.9) ng/mL
1.2 mg m.d., Day 12, Group I
  AUC(0-8), Arithmetic Mean (SD): 51.9 (14.7) ng · h/mL
  AUC(0-8), Geometric Mean (Range): 50.1 (34.1-69.8) ng · h/mL
  Cmax, Arithmetic Mean (SD): 8.15 (1.87) ng/mL
  tmax, Arithmetic Mean (SD): 0.86 (0.88) h
  tmax, median (range): 0.33 (0.25-2.00) h
  t½, Arithmetic Mean (SD): 32.1 (9.07) h
  t½, Geometric Mean (Range): 31.0 (23.2-43.8) h
1.2 mg s.d., Day 1
  AUC(0-8), Arithmetic Mean (SD): 18.5 (3.85) ng · h/mL
  AUC(0-8), Geometric Mean (Range): 18.2 (13.0-24.2) ng · h/mL
  AUC(0-inf), Arithmetic Mean (SD): 83.6 (18.5) ng · h/mL
  AUC(0-inf), Geometric Mean (Range): 82.0 (60.5-110) ng · h/mL
  tmax, Arithmetic Mean (SD): 1.54 (0.75) h
  tmax, median (range): 2.00 (0.25-2.00) h
  t½, Arithmetic Mean (SD): 33.9 (12.8) h
  t½, Geometric Mean (Range): 32.0 (23.9-50.6) h
1.2 mg s.d., Day 1, plasma
  Cmax, Arithmetic Mean (SD): 3.81 (0.56) ng/mL
  Cmax, Geometric Mean (Range): 3.77 (2.81-4.40) ng/mL
3.6 mg m.d. (three times daily), Day 19, Group II
  Cmax, Geometric Mean (Range): 25.5 (13.2-45.0) ng/mL
3.6 mg m.d., Day 19, Group II
  AUC(0-8), Arithmetic Mean (SD): 182 (97.5) ng · h/mL
  AUC(0-8), Geometric Mean (Range): 159 (75.5-317) ng · h/mL
  Cmax, Arithmetic Mean (SD): 28.1 (12.7) ng/mL
  tmax, Arithmetic Mean (SD): 1.03 (0.79) h
  tmax, median (range): 0.75 (0.33-2.00) h
  t½, Arithmetic Mean (SD): 39.6 (15.3) h
  t½, Geometric Mean (Range): 37.4 (24.0-62.3) h
3.6 mg s.d., Day 1
  AUC(0-8), Arithmetic Mean (SD): 47.1 (17.5) ng · h/mL
  AUC(0-8), Geometric Mean (Range): 44.5 (30.2-74.4) ng · h/mL
  AUC(0-inf), Arithmetic Mean (SD): 172 (85.6) ng · h/mL
  AUC(0-inf), Geometric Mean (Range): 152 (64.8-283) ng · h/mL
  tmax, Arithmetic Mean (SD): 2.33 (0.52) h
  tmax, median (range): 2.00 (2.00-3.00) h
  t½, Arithmetic Mean (SD): 23.8 (11.3) h
  t½, Geometric Mean (Range): 21.7 (11.3-39.2) h
3.6 mg s.d., Day 1, plasma
  Cmax, Arithmetic Mean (SD): 8.75 (3.16) ng/mL
  Cmax, Geometric Mean (Range): 8.34 (6.01-14.4) ng/mL
3.6-mg dose level three times daily
  achievement of steady state: achieved after seven or eight days of dosing
8-hours dosing interval
  accumulation during multiple dosing: accumulation occurred during multiple dosing
Group I, 1.2 mg
  Ratio AUC(0-8) m.d./AUC(0-8) s.d. (Accumulation factor), Mean: 2.90
  Ratio AUC(0-8) m.d./AUC(0-inf) s.d. (Linearity), Mean: 0.65
Group II, 3.6 mg
  Ratio AUC(0-8) m.d./AUC(0-8) s.d. (Accumulation factor), Mean: 3.92
  Ratio AUC(0-8) m.d./AUC(0-inf) s.d. (Linearity), Mean: 1.11
Multiple dose
  dose proportionality: geometric mean ratio (3.6 mg:1.2 mg) of dose-normalized AUC(0-8) (90% confidence interval): 1.05 (0.65-1.71)
  dose proportionality: geometric mean ratio (3.6 mg:1.2 mg) of dose-normalized Cmax (90% confidence interval): 1.07 (0.71-1.60)
Single dose
  dose proportionality: geometric mean ratio (3.6 mg:1.2 mg) of dose-normalized AUC(0-8) (90% confidence interval): 0.82 (0.60-1.11)
  dose proportionality: geometric mean ratio (3.6 mg:1.2 mg) of dose-normalized AUC(0-inf) (90% confidence interval): 0.62 (0.39-0.98)
  dose proportionality: geometric mean ratio (3.6 mg:1.2 mg) of dose-normalized AUC(0-t) (90% confidence interval): 0.61 (0.34-1.09)
  dose proportionality: geometric mean ratio (3.6 mg:1.2 mg) of dose-normalized Cmax (90% confidence interval): 0.74 (0.56-0.96)
After both single and multiple dose administration
  exposure, fold higher compared to the parent: approximately 10 fold
After single dosing
  Cmax, fold lower compared to the parent compound: 5 fold
After single or multiple dose administration
  dose proportionality of pharmacokinetic parameters: not found to deviate significantly
Both dose levels
  plasma concentration-time curve, elimination profile: almost no distribution phase and a multi-phasic elimination phase
Both dose levels, post-dose
  time of peak plasma concentration: between 15 minutes and 3 hours post-dose
In vivo
  ratios of AUC(0-8) after multiple dosing versus AUC(0-inf) after single dose (linearity): did not deviate clearly or significantly from unity
Single and multiple dose administration, 1.2 and 3.6 mg
  Cmax and AUC values versus dose: Dose-related increases
summary, best estimated after multiple dosing
  Terminal elimination half-lives (summary estimate): ~30 h

Source: patent US20070020193A1, “Dronabinol compositions and methods for using same” (priority 2005, published 2007)
